Data published in publication PMC5218480 (PLoS ONE, 2017).

System: MV-4-11 cells
Assay: Gene expression microarray analysis (Affymetrix PrimeView) and GSEA
Type: cell-based, human
Set-up: RFU PODN (11730768_x_at) / Fold change /veh PODN (11730768_x_at) / RFU LINC00158 (11744669_a_at) / Fold change /veh LINC00158 (11744669_a_at) / RFU DUSP10 (11751237_a_at) / Fold change /veh DUSP10 (11751237_a_at) / RFU ID3 (11757404_x_at) / Fold change /veh ID3 (11757404_x_at) / RFU PLEKHG5 (11737974_s_at) / Fold change /veh PLEKHG5 (11737974_s_at) / RFU LRRC4B (11730491_at) / Fold change /veh LRRC4B (11730491_at) / RFU GIMAP4 (11747438_a_at) / Fold change /veh GIMAP4 (11747438_a_at) / RFU KRT8 (11758183_x_at) / Fold change /veh KRT8 (11758183_x_at) / RFU CNN1 (11734310_a_at) / Fold change /veh CNN1 (11734310_a_at) / RFU VPS37D (11726825_at) / Fold change /veh VPS37D (11726825_at) / RFU C10orf10 (11716522_x_at) / Fold change /veh C10orf10 (11716522_x_at) / RFU KIR2DL2 /// KIR2DL4 /// KIR2DL5A /// KIR2DL5B /// KIR2DS1 /// KIR2DS2 /// KIR2DS3 /// KIR2DS4 /// KIR3DL3 /// KIR3DL3 /// KIR3DS1 (11738374_at) / Fold change /veh KIR2DL2 /// KIR2DL4 /// KIR2DL5A /// KIR2DL5B /// KIR2DS1 /// KIR2DS2 /// KIR2DS3 /// KIR2DS4 /// KIR3DL3 /// KIR3DL3 /// KIR3DS1 (11738374_at) / RFU C1QL1 (11718748_at) / Fold change /veh C1QL1 (11718748_at) / RFU TMPRSS4 (11747572_a_at) / Fold change /veh TMPRSS4 (11747572_a_at) / RFU HAMP (11756126_x_at) / Fold change /veh HAMP (11756126_x_at) / RFU RNFT2 (11725882_a_at) / Fold change /veh RNFT2 (11725882_a_at) / RFU NR4A2 (11747474_a_at) / Fold change /veh NR4A2 (11747474_a_at) / RFU ABCC12 (11746883_a_at) / Fold change /veh ABCC12 (11746883_a_at) / RFU TMEM136 (11760407_x_at) / Fold change /veh TMEM136 (11760407_x_at) / RFU CLDN22 /// WWC2 (11732394_at) / Fold change /veh CLDN22 /// WWC2 (11732394_at) / RFU HLA-DPB1 (11760878_x_at) / Fold change /veh HLA-DPB1 (11760878_x_at) / RFU SPINT1 (11716480_a_at) / Fold change /veh SPINT1 (11716480_a_at) / RFU GAP43 (11754022_s_at) / Fold change /veh GAP43 (11754022_s_at) / RFU A4GNT (11735810_at) / Fold change /veh A4GNT (11735810_at) / RFU PRB3 (11715151_x_at) / Fold change /veh PRB3 (11715151_x_at) / RFU TUBB4B (11761932_at) / Fold change /veh TUBB4B (11761932_at) / RFU CAPN14 (11732068_a_at) / Fold change /veh CAPN14 (11732068_a_at) / RFU TMCC2 (11721928_a_at) / Fold change /veh TMCC2 (11721928_a_at) / RFU IRGQ (11745062_a_at) / Fold change /veh IRGQ (11745062_a_at) / RFU FAM174B (11720279_a_at) / Fold change /veh FAM174B (11720279_a_at) / RFU TMPRSS4 (11748680_a_at) / Fold change /veh TMPRSS4 (11748680_a_at) / RFU FAM212B (11763350_a_at) / Fold change /veh FAM212B (11763350_a_at) / RFU PLEKHG5 (11743358_a_at) / Fold change /veh PLEKHG5 (11743358_a_at) / RFU ZSCAN30 (11745921_a_at) / Fold change /veh ZSCAN30 (11745921_a_at) / RFU CMKLR1 (11741424_a_at) / Fold change /veh CMKLR1 (11741424_a_at) / RFU LOC101060620 /// MAPK8IP1 (11723275_at) / Fold change /veh LOC101060620 /// MAPK8IP1 (11723275_at) / RFU SPTSSB (11747773_x_at) / Fold change /veh SPTSSB (11747773_x_at) / RFU PRSS12 (11739890_at) / Fold change /veh PRSS12 (11739890_at) / RFU BIN1 (11741810_x_at) / Fold change /veh BIN1 (11741810_x_at) / RFU WNT11 (11732464_a_at) / Fold change /veh WNT11 (11732464_a_at) / RFU C10orf10 (11716521_a_at) / Fold change /veh C10orf10 (11716521_a_at) / RFU C5orf56 (11738089_at) / Fold change /veh C5orf56 (11738089_at) / RFU CYB561 (11721691_x_at) / Fold change /veh CYB561 (11721691_x_at) / RFU ANKRD19P (11752326_a_at) / Fold change /veh ANKRD19P (11752326_a_at) / RFU OR2T12 /// OR2T33 /// OR2T8 (11738714_s_at) / Fold change /veh OR2T12 /// OR2T33 /// OR2T8 (11738714_s_at) / RFU VCAN (11748164_a_at) / Fold change /veh VCAN (11748164_a_at) / RFU JSRP1 (11732532_at) / Fold change /veh JSRP1 (11732532_at) / RFU KRTAP10-11 (11738290_x_at) / Fold change /veh KRTAP10-11 (11738290_x_at) / RFU MYO3A (11730013_a_at) / Fold change /veh MYO3A (11730013_a_at) / RFU EBF3 (11725865_a_at) / Fold change /veh EBF3 (11725865_a_at) / RFU CAMK2N1 (11719241_x_at) / Fold change /veh CAMK2N1 (11719241_x_at) / RFU C5orf56 (11738088_a_at) / Fold change /veh C5orf56 (11738088_a_at) / RFU OLFML3 (11715873_a_at) / Fold change /veh OLFML3 (11715873_a_at) / RFU LOC100653217 /// NTM (11731650_a_at) / Fold change /veh LOC100653217 /// NTM (11731650_a_at) / RFU MAPK11 (11762145_a_at) / Fold change /veh MAPK11 (11762145_a_at) / RFU FIZ1 (11724087_x_at) / Fold change /veh FIZ1 (11724087_x_at) / RFU OASL (11726364_x_at) / Fold change /veh OASL (11726364_x_at) / RFU SOX15 (11748057_x_at) / Fold change /veh SOX15 (11748057_x_at) / RFU CD79A (11719716_a_at) / Fold change /veh CD79A (11719716_a_at) / RFU HIST1H1D (11736915_at) / Fold change /veh HIST1H1D (11736915_at) / RFU CASKIN2 (11723855_a_at) / Fold change /veh CASKIN2 (11723855_a_at) / RFU LOC730098 (11760151_x_at) / Fold change /veh LOC730098 (11760151_x_at) / RFU OR4N2 (11742367_at) / Fold change /veh OR4N2 (11742367_at) / RFU PRRT2 (11749266_a_at) / Fold change /veh PRRT2 (11749266_a_at) / RFU SNX32 (11753110_a_at) / Fold change /veh SNX32 (11753110_a_at) / RFU CDHR5 (11726645_a_at) / Fold change /veh CDHR5 (11726645_a_at) / RFU RCAN1 (11760418_a_at) / Fold change /veh RCAN1 (11760418_a_at) / RFU FAM167A (11723789_a_at) / Fold change /veh FAM167A (11723789_a_at) / RFU FAM26E (11764081_at) / Fold change /veh FAM26E (11764081_at) / RFU ISYNA1 (11749810_s_at) / Fold change /veh ISYNA1 (11749810_s_at) / RFU ACY1 (11761880_at) / Fold change /veh ACY1 (11761880_at) / RFU 11764098_at / Fold change /veh 11764098_at / RFU SAMD14 (11745864_x_at) / Fold change /veh SAMD14 (11745864_x_at) / RFU NPB (11741838_a_at) / Fold change /veh NPB (11741838_a_at) / RFU TMPRSS6 (11731388_a_at) / Fold change /veh TMPRSS6 (11731388_a_at) / RFU KRTAP10-2 (11738614_at) / Fold change /veh KRTAP10-2 (11738614_at) / RFU ARHGAP8 /// PRR5-ARHGAP8 (11727945_x_at) / Fold change /veh ARHGAP8 /// PRR5-ARHGAP8 (11727945_x_at) / RFU KRTAP5-7 /// NADSYN1 (11734609_at) / Fold change /veh KRTAP5-7 /// NADSYN1 (11734609_at) / RFU RASL12 (11751679_a_at) / Fold change /veh RASL12 (11751679_a_at) / RFU CDKN2B (11736163_a_at) / Fold change /veh CDKN2B (11736163_a_at) / RFU PRF1 (11729649_at) / Fold change /veh PRF1 (11729649_at) / RFU, ZNF638 /// ZNF638-IT1 / Fold change vs veh, ZNF638 /// ZNF638-IT1 / RFU, PANK3 / Fold change vs veh, PANK3 / RFU, SH3YL1 / Fold change vs veh, SH3YL1 / RFU, ZEB2 / Fold change vs veh, ZEB2 / RFU, NRIP1 / Fold change vs veh, NRIP1 / RFU, PTTG1IP / Fold change vs veh, PTTG1IP / RFU, CAPN2 / Fold change vs veh, CAPN2 / RFU, MED14 / Fold change vs veh, MED14 / RFU, SNORA58 / Fold change vs veh, SNORA58 / RFU, C1orf63 / Fold change vs veh, C1orf63 / RFU, LRRFIP1 / Fold change vs veh, LRRFIP1 / RFU, NDUFAF7 / Fold change vs veh, NDUFAF7 / RFU, SLC12A2 / Fold change vs veh, SLC12A2 / RFU, IBTK / Fold change vs veh, IBTK / RFU, ESF1 / Fold change vs veh, ESF1 / Fold change vs veh, TMEM50B / RFU, TAOK1 / Fold change vs veh, TAOK1 / RFU, ACBD3 / Fold change vs veh, ACBD3 / RFU, TMA16 / Fold change vs veh, TMA16 / RFU, RWDD3 / Fold change vs veh, RWDD3 / RFU, BCAT1 / Fold change vs veh, BCAT1 / RFU, EDEM3 / Fold change vs veh, EDEM3 / RFU, TMEM33 / Fold change vs veh, TMEM33 / RFU, WDR75 / Fold change vs veh, WDR75 / RFU, AHCTF1 / Fold change vs veh, AHCTF1 / RFU, TFRC / Fold change vs veh, TFRC / RFU, ZDHHC17 / Fold change vs veh, ZDHHC17 / RFU, NOM1 / Fold change vs veh, NOM1 / RFU, ARL8B / Fold change vs veh, ARL8B / RFU, ZBTB11 / Fold change vs veh, ZBTB11 / RFU, TAMM41 / Fold change vs veh, TAMM41 / RFU, KIAA1704 /// LOC100996395 / Fold change vs veh, KIAA1704 /// LOC100996395 / RFU, ING1 / Fold change vs veh, ING1 / RFU, TRMT61B / Fold change vs veh, TRMT61B / RFU, FUBP3 / Fold change vs veh, FUBP3 / RFU, TP53 / Fold change vs veh, TP53 / RFU, TNKS2 / Fold change vs veh, TNKS2 / RFU, ZFP14 / Fold change vs veh, ZFP14 / RFU, ACTR2 / Fold change vs veh, ACTR2 / RFU, PPP3R1 / Fold change vs veh, PPP3R1 / RFU, PIK3R1 / Fold change vs veh, PIK3R1 / RFU, HNRNPA1 / Fold change vs veh, HNRNPA1 / RFU, RNF170 / Fold change vs veh, RNF170 / RFU, ZNF28 / Fold change vs veh, ZNF28 / RFU, RNGTT / Fold change vs veh, RNGTT / RFU, OGT / Fold change vs veh, OGT / RFU, BRD1 / Fold change vs veh, BRD1 / RFU, MARS / Fold change vs veh, MARS / RFU, ZNF655 / Fold change vs veh, ZNF655 / RFU, FAHD1 / Fold change vs veh, FAHD1 / RFU, BDP1 / Fold change vs veh, BDP1 / RFU, LRRCC1 / Fold change vs veh, LRRCC1 / RFU, ARID1A / Fold change vs veh, ARID1A / RFU, ZNF146 / Fold change vs veh, ZNF146 / RFU, ZNF330 / Fold change vs veh, ZNF330 / RFU, GPN3 / Fold change vs veh, GPN3 / RFU, C9orf123 / Fold change vs veh, C9orf123 / RFU, N4BP2L2 / Fold change vs veh, N4BP2L2 / RFU, ARFIP1 / Fold change vs veh, ARFIP1 / RFU, FAM179B / Fold change vs veh, FAM179B / RFU, BCL10 / Fold change vs veh, BCL10 / RFU, UHRF1BP1L / Fold change vs veh, UHRF1BP1L / RFU, BET1 / Fold change vs veh, BET1 / RFU, CNOT2 / Fold change vs veh, CNOT2 / RFU, ZNF268 / Fold change vs veh, ZNF268 / Fold change vs veh, ZNF507 / RFU, DGCR2 / Fold change vs veh, DGCR2 / RFU, WDSUB1 / Fold change vs veh, WDSUB1 / Fold change vs veh, HSP90B1 /// MIR3652 / RFU, ADSS / Fold change vs veh, ADSS / RFU, GK / Fold change vs veh, GK / RFU, ZNF148 / Fold change vs veh, ZNF148 / RFU, TAF9 / Fold change vs veh, TAF9 / RFU, SLC1A5 / Fold change vs veh, SLC1A5 / RFU, SLMO2 / Fold change vs veh, SLMO2 / RFU, ABCC4 / Fold change vs veh, ABCC4 / RFU, LOC101060439 /// RAP1B / Fold change vs veh, LOC101060439 /// RAP1B / RFU, RFX7 / Fold change vs veh, RFX7 / RFU, GTPBP10 / Fold change vs veh, GTPBP10 / RFU, CNEP1R1 / Fold change vs veh, CNEP1R1 / RFU, BIVM-ERCC5 /// ERCC5 / Fold change vs veh, BIVM-ERCC5 /// ERCC5 / RFU, ILF3 / Fold change vs veh, ILF3 / RFU 11762660_at / Fold change /veh 11762660_at / RFU VCAN (11757783_s_at) / Fold change /veh VCAN (11757783_s_at) / RFU DDX43 (11728927_at) / Fold change /veh DDX43 (11728927_at) / RFU KRT8 (11758188_x_at) / Fold change /veh KRT8 (11758188_x_at) / RFU NKD1 (11759106_at) / Fold change /veh NKD1 (11759106_at) / RFU SRD5A1 (11742802_a_at) / Fold change /veh SRD5A1 (11742802_a_at) / RFU TPSAB1 /// TPSB2 (11721975_s_at) / Fold change /veh TPSAB1 /// TPSB2 (11721975_s_at) / RFU GSTM3 (11746129_a_at) / Fold change /veh GSTM3 (11746129_a_at) / RFU IL23R (11737362_x_at) / Fold change /veh IL23R (11737362_x_at) / RFU TMEM51 (11727254_a_at) / Fold change /veh TMEM51 (11727254_a_at) / RFU PIWIL2 (11732686_x_at) / Fold change /veh PIWIL2 (11732686_x_at) / RFU ORM1 (11744905_x_at) / Fold change /veh ORM1 (11744905_x_at) / RFU CCDC152 (11743942_at) / Fold change /veh CCDC152 (11743942_at) / RFU ECM1 (11717891_a_at) / Fold change /veh ECM1 (11717891_a_at) / RFU IL23R (11748794_a_at) / Fold change /veh IL23R (11748794_a_at) / RFU TNFAIP8L3 (11732012_x_at) / Fold change /veh TNFAIP8L3 (11732012_x_at) / RFU MBOAT4 (11741988_at) / Fold change /veh MBOAT4 (11741988_at) / RFU 11764193_at / Fold change /veh 11764193_at / RFU TMEM53 (11763286_at) / Fold change /veh TMEM53 (11763286_at) / RFU MAGEB2 (11727129_at) / Fold change /veh MAGEB2 (11727129_at) / RFU TMEM200A (11744735_a_at) / Fold change /veh TMEM200A (11744735_a_at) / RFU CCDC152 (11751479_a_at) / Fold change /veh CCDC152 (11751479_a_at) / RFU FAM211A (11726209_a_at) / Fold change /veh FAM211A (11726209_a_at) / RFU RGS16 (11746705_a_at) / Fold change /veh RGS16 (11746705_a_at) / RFU VCAN (11755009_s_at) / Fold change /veh VCAN (11755009_s_at) / RFU RHOB (11743442_s_at) / Fold change /veh RHOB (11743442_s_at) / RFU RGS16 (11720943_a_at) / Fold change /veh RGS16 (11720943_a_at) / RFU RGS16 (11720944_at) / Fold change /veh RGS16 (11720944_at) / RFU, VPS4B / Fold change vs veh, VPS4B / RFU, CREB1 / Fold change vs veh, CREB1 / RFU, DNAJC13 / Fold change vs veh, DNAJC13 / RFU, GNAQ / Fold change vs veh, GNAQ / RFU, CDK5R1 / Fold change vs veh, CDK5R1 / RFU, ZRANB3 / Fold change vs veh, ZRANB3 / RFU, CUL4A / Fold change vs veh, CUL4A / RFU, CCNY / Fold change vs veh, CCNY / RFU, UFL1 / Fold change vs veh, UFL1 / RFU, COG3 / Fold change vs veh, COG3 / RFU, DIAPH2 / Fold change vs veh, DIAPH2 / RFU, SKA2 / Fold change vs veh, SKA2 / RFU, AFF3 / Fold change vs veh, AFF3 / RFU, LMF1 / Fold change vs veh, LMF1 / RFU, IPO11 / Fold change vs veh, IPO11 / RFU, DFFB / Fold change vs veh, DFFB / RFU, FOXP1 / Fold change vs veh, FOXP1 / RFU, CARD8 / Fold change vs veh, CARD8 / RFU, STRN3 / Fold change vs veh, STRN3 / RFU, ADK / Fold change vs veh, ADK / RFU, RASSF2 / Fold change vs veh, RASSF2 / RFU, WIPF1 / Fold change vs veh, WIPF1 / RFU, LARP1B / Fold change vs veh, LARP1B / RFU, RASA1 / Fold change vs veh, RASA1 / RFU, RB1 / Fold change vs veh, RB1 / RFU, PPFIA1 / Fold change vs veh, PPFIA1 / RFU, MAT2A / Fold change vs veh, MAT2A / RFU, CCT5 / Fold change vs veh, CCT5 / RFU, WDR92 / Fold change vs veh, WDR92 / RFU, CUX1 / Fold change vs veh, CUX1 / RFU, TTC7A / Fold change vs veh, TTC7A / RFU, TMEM135 / Fold change vs veh, TMEM135 / RFU, DEPTOR / Fold change vs veh, DEPTOR / RFU, CPM / Fold change vs veh, CPM / RFU, DNAJB6 / Fold change vs veh, DNAJB6 / RFU, CACNA2D3 / Fold change vs veh, CACNA2D3 / RFU, DTX4 / Fold change vs veh, DTX4 / RFU, TFCP2 / Fold change vs veh, TFCP2 / RFU, GMCL1 /// GMCL1P1 / Fold change vs veh, GMCL1 /// GMCL1P1 / RFU, AEBP2 / Fold change vs veh, AEBP2 / RFU, SNHG1 /// SNORD22 /// SNORD25 /// SNORD26 /// SNORD27 /// SNORD28 /// SNORD29 /// SNORD31 / Fold change vs veh, SNHG1 /// SNORD22 /// SNORD25 /// SNORD26 /// SNORD27 /// SNORD28 /// SNORD29 /// SNORD31 / Fold change (Aza/veh), C12orf56 (ProbeSet 11735607_a_at) / Fold change (ACY-1035/veh), C12orf56 (ProbeSet 11735607_a_at) / Fold change (Aza/veh), FGFR1OP (ProbeSet 11751329_s_at) / Fold change (ACY-1035/veh), FGFR1OP (ProbeSet 11751329_s_at) / Fold change (Aza/veh), VPS36 (ProbeSet 11739960_a_at) / Fold change (ACY-1035/veh), VPS36 (ProbeSet 11739960_a_at) / RFU SYPL1 (11715823_x_at) / Fold change /veh SYPL1 (11715823_x_at) / RFU IGFBP7 (11715501_s_at) / Fold change /veh IGFBP7 (11715501_s_at) / RFU REEP3 (11722064_at) / Fold change /veh REEP3 (11722064_at) / RFU IGLL1 (11728026_x_at) / Fold change /veh IGLL1 (11728026_x_at): dose or concentration left out as unconfirmed
Conditions: ProbeSet 11723930_at; LIST D

SMILES: Nc1ccc(-c2cccs2)cc1NC(=O)c1ccc2c(c1)cc(C1CC1)n2CCN1CCOCC1 [ACY-1035]
- Fold change vs veh, CCT5: 0.85
